System: 885724-159-R-J1-PDC complex spheroid viability
Experiment: Anticancer human tumor 885724-159-R-J1-PDC patient-derived pancreatic adenocarcinoma cell line growth inhibition [GQUAD]
Details: for IC50: curve of first compound; for viability, T/C: stronger effect = lower value
How it was run: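 Multi-cell-type spheroids of tumor cells with HUVEC and mesenchymal stem cells, treated with drug combinations. Concentrations descend in half-log steps from near clinical Cmax, or from 10 microM where Cmax is unknown; viability read-out.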

[1] = second compound 0.0316 µM, first compound 0.0316 µM
[2] = second compound 0.0316 µM, first compound 0.1 µM
[3] = second compound 0.0316 µM, first compound 0.316 µM
[4] = second compound 0.0316 µM, first compound 1 µM
[5] = second compound 0.0316 µM, first compound 3.16 µM
[6] = second compound 0.0316 µM, first compound 10 µM
[7] = second compound 0.1 µM, first compound 0.0316 µM
[8] = second compound 0.1 µM, first compound 0.1 µM
[9] = second compound 0.1 µM, first compound 0.316 µM
[10] = second compound 0.1 µM, first compound 1 µM
[11] = second compound 0.1 µM, first compound 3.16 µM
[12] = second compound 0.1 µM, first compound 10 µM
[13] = second compound 0.316 µM, first compound 0.0316 µM
[14] = second compound 0.316 µM, first compound 0.1 µM
[15] = second compound 0.316 µM, first compound 0.316 µM
[16] = second compound 0.316 µM, first compound 1 µM
[17] = second compound 0.316 µM, first compound 3.16 µM
[18] = second compound 0.316 µM, first compound 10 µM
[19] = second compound 1 µM, first compound 0.0316 µM
[20] = second compound 1 µM, first compound 0.1 µM
[21] = second compound 1 µM, first compound 0.316 µM
[22] = second compound 1 µM, first compound 1 µM
[23] = second compound 1 µM, first compound 3.16 µM
[24] = second compound 1 µM, first compound 10 µM
[25] = second compound 3.16 µM, first compound 0.0316 µM
[26] = second compound 3.16 µM, first compound 0.1 µM
[27] = second compound 3.16 µM, first compound 0.316 µM
[28] = second compound 3.16 µM, first compound 1 µM
[29] = second compound 3.16 µM, first compound 3.16 µM
[30] = second compound 3.16 µM, first compound 10 µM
[31] = second compound 10 µM, first compound 0.0316 µM
[32] = second compound 10 µM, first compound 0.1 µM
[33] = second compound 10 µM, first compound 0.316 µM
[34] = second compound 10 µM, first compound 1 µM
[35] = second compound 10 µM, first compound 3.16 µM
[36] = second compound 10 µM, first compound 10 µM
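Also: spheroids exposed to agents for seven days before readout.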
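For viability, T/C in this document: percent of vehicle control viability where 100% = DMSO wells.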

## CC(C)(O)C1CCC(Nc2ccc3ncc(-c4cccc(C(F)(F)F)c4)n3n2)CC1 (centres undefined) + CN(C)c1ccc(Nc2c3ccc(NC(=O)CCN4CCCC4)cc3nc3cc(NC(=O)CCN4CCCC4)ccc23)cc1
Second compound 0.0316 µM
  IC50: 2730 nM
Second compound 0.1 µM
  IC50: 3140 nM
Second compound 0.316 µM
  IC50: 1880 nM
Second compound 1 µM
  IC50: 1620 nM
Second compound 3.16 µM
  IC50: 764 nM
Second compound 10 µM
  IC50: 1190 nM
[1]
  viability, T/C: 109%
[2]
  viability, T/C: 98%
[3]
  viability, T/C: 87%
[4]
  viability, T/C: 70.5%
[5]
  viability, T/C: 42.1%
[6]
  viability, T/C: 41.2%
[7]
  viability, T/C: 97.7%
[8]
  viability, T/C: 92.8%
[9]
  viability, T/C: 80.3%
[10]
  viability, T/C: 71.2%
[11]
  viability, T/C: 44.8%
[12]
  viability, T/C: 44.1%
[13]
  viability, T/C: 83.7%
[14]
  viability, T/C: 84.2%
[15]
  viability, T/C: 71.6%
[16]
  viability, T/C: 64.1%
[17]
  viability, T/C: 38%
[18]
  viability, T/C: 35.7%
[19]
  viability, T/C: 83.6%
[20]
  viability, T/C: 67.9%
[21]
  viability, T/C: 71.1%
[22]
  viability, T/C: 62.3%
[23]
  viability, T/C: 30.5%
[24]
  viability, T/C: 35.6%
[25]
  viability, T/C: 76.1%
[26]
  viability, T/C: 75.6%
[27]
  viability, T/C: 65.9%
[28]
  viability, T/C: 44.5%
[29]
  viability, T/C: 27.9%
[30]
  viability, T/C: 19.3%
[31]
  viability, T/C: 62%
[32]
  viability, T/C: 63.5%
[33]
  viability, T/C: 57.3%
[34]
  viability, T/C: 55.7%
[35]
  viability, T/C: 20.6%
[36]
  viability, T/C: 7.17%

## COc1cc(C2c3cc4c(cc3C(OC3OC5COC(C)OC5C(O)C3O)C3COC(=O)C23)OCO4)cc(OC)c1O (centres undefined) + CN(C)c1ccc(Nc2c3ccc(NC(=O)CCN4CCCC4)cc3nc3cc(NC(=O)CCN4CCCC4)ccc23)cc1
Second compound 0.0316 µM
  IC50: > 10000 nM
Second compound 0.1 µM
  IC50: > 10000 nM
Second compound 0.316 µM
  IC50: > 10000 nM
Second compound 1 µM
  IC50: > 10000 nM
Second compound 3.16 µM
  IC50: > 10000 nM
Second compound 10 µM
  IC50: > 10000 nM
[1]
  viability, T/C: 94.3%
[2]
  viability, T/C: 90.8%
[3]
  viability, T/C: 84.4%
[4]
  viability, T/C: 87.6%
[5]
  viability, T/C: 73.3%
[6]
  viability, T/C: 72.6%
[7]
  viability, T/C: 114%
[8]
  viability, T/C: 87.2%
[9]
  viability, T/C: 83.2%
[10]
  viability, T/C: 81.8%
[11]
  viability, T/C: 80.6%
[12]
  viability, T/C: 69.4%
[13]
  viability, T/C: 104%
[14]
  viability, T/C: 82.9%
[15]
  viability, T/C: 90.8%
[16]
  viability, T/C: 89.5%
[17]
  viability, T/C: 76.3%
[18]
  viability, T/C: 64.2%
[19]
  viability, T/C: 91.6%
[20]
  viability, T/C: 86.1%
[21]
  viability, T/C: 70.4%
[22]
  viability, T/C: 76.6%
[23]
  viability, T/C: 76%
[24]
  viability, T/C: 60.4%
[25]
  viability, T/C: 73.1%
[26]
  viability, T/C: 63.1%
[27]
  viability, T/C: 69.5%
[28]
  viability, T/C: 56.6%
[29]
  viability, T/C: 63.4%
[30]
  viability, T/C: 57.8%
[31]
  viability, T/C: 73.4%
[32]
  viability, T/C: 74%
[33]
  viability, T/C: 68.2%
[34]
  viability, T/C: 82.6%
[35]
  viability, T/C: 71.4%
[36]
  viability, T/C: 56.6%
